# Laboratory results published in the supplement of paper PMC11616607.
# Columns and labels:
# Experiment in all cases: drug sensitivity score (DSS) from 5-point dose-response viability curve (DSS (area-under-curve based score)); higher = more sensitive (stronger growth inhibition or killing); extreme values may be limits of the assay
# Conditions in all cases: exposure time: 72 h; concentration range: 5 concentrations over 10,000-fold range
# JHOS2 = test system: JHOS2
# Summary of the method: (§1)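 Drugs in DMSO or water were acoustically dispensed (Echo 550) into 384-well plates at five concentrations across a 10,000-fold range. Ovarian cancer and normal ovarian cells (1,500 per well) were then added, incubated for 3 days at 37°C with 5% CO2, and read for viability by CellTiter-Glo luminescence on a PHERAstar FS. From these readings, Breeze software derived a drug sensitivity score per cell line and drug, with higher values meaning more sensitive and zero meaning no response.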
# HOSE2C = test system: HOSE2C
# Summary of the method: as §1
# CAOV3 = test system: CAOV3
# Summary of the method: as §1
# HOSE1C = test system: HOSE1C
# Summary of the method: as §1
# OVCAR5 = test system: OVCAR5
# Summary of the method: as §1
# COV318 = test system: COV318
# Summary of the method: as §1
# Kuramochi = test system: Kuramochi
# Summary of the method: as §1
# OVCAR8 = test system: OVCAR8
# Summary of the method: as §1
# COV362 = test system: COV362
# Summary of the method: as §1
# OV90 = test system: OV90
# Summary of the method: as §1
# Ovsaho = test system: Ovsaho
# Summary of the method: as §1
# OVCAR4 = test system: OVCAR4
# Summary of the method: as §1
Compound,drug sensitivity score (JHOS2),drug sensitivity score (HOSE2C),drug sensitivity score (CAOV3),drug sensitivity score (HOSE1C),drug sensitivity score (OVCAR5),drug sensitivity score (COV318),drug sensitivity score (Kuramochi),drug sensitivity score (OVCAR8),drug sensitivity score (COV362),drug sensitivity score (OV90),drug sensitivity score (Ovsaho),drug sensitivity score (OVCAR4)
CC[C@]12C=CCN3CC[C@@]4(c5cc([C@@]6(C(=O)OC)C[C@@H]7C[C@@H](C(C)(F)F)CN(Cc8c6[nH]c6ccccc86)C7)c(OC)cc5N(C)[C@H]4[C@@](O)(C(=O)OC)[C@@H]1OC(C)=O)[C@@H]32 [Vinflunine],2.4,3.6,4.3,3.6,3.4,0.7,1.9,4.1,1.3,3.3,1.8,2.1
CCC1=C[C@@H]2CN(C1)Cc1c([nH]c3ccccc13)[C@@](C(=O)OC)(c1cc3c(cc1OC)N(C)[C@H]1[C@@](O)(C(=O)OC)[C@H](OC(C)=O)[C@]4(CC)C=CCN5CC[C@]31[C@@H]54)C2 [Vinorelbine],9.7,32.1,16.4,30.2,19.5,8.1,12.6,27.6,8.9,26.5,19.9,12.7
CS(=O)(=O)c1ccc(C(=O)Nc2ccc(Cl)c(-c3ccccn3)c2)c(Cl)c1 [Vismodegib],0,0,0,3.8,0.1,0,0.1,0,0,0.1,0,0
CNC(=O)c1cccc(-c2ccc3c(N4CCOC[C@@H]4C)nc(N4CCOC[C@@H]4C)nc3n2)c1 [Vistusertib],7.7,10.3,10.2,14.5,13.3,10,11.5,10.2,2.8,15.1,15.4,11.5
CC[C@@H]1C(=O)N(C)c2cnc(Nc3ccc(C(=O)N[C@H]4CC[C@H](N5CCN(CC6CC6)CC5)CC4)cc3OC)nc2N1C(C)C [Volasertib],7.1,6.3,13.1,9.7,12.2,4.1,7.3,15.5,3.2,11.5,10.4,4.4
O=C(CCCCCCC(=O)Nc1ccccc1)NO [Vorinostat],5.3,10.7,8.6,15.9,10.8,4.3,4.7,9.7,3.2,8,2.7,4.7
Oc1nc(-c2ccc(C(F)(F)F)cc2)nc2c1CSCC2 [XAV-939],0.1,0,0,0,0,0,1.5,0,0,0,2.3,3.6
FC(F)c1nc2ccccc2n1-c1nc(N2CCOCC2)nc(N2CCOCC2)n1 [ZSTK474],4,10.6,8,8.8,11,7.8,17.4,8.9,4.4,5.7,10.6,7.7
